Measured values from the NIST ThermoML archive (doi:10.1016/j.tca.2010.04.004).
Numbers after ± are expanded uncertainties.

Assay: mn = molality of the nth substance listed, in mol/kg
Conditions: 298.15 K, 101 kPa, Liquid, Vibrating tube method

Work on O=S(=O)(O)CC(O)CN1CCOCC1 (stereo not drawn) [3-morpholino-2-hydroxypropanesulfonic acid] + O yielded a mass density (m1 = 0.0126) of 998.04 ± 0.13 kg/m3, a mass density (m1 = 0.0178) of 998.45 ± 0.13 kg/m3 and a mass density (m1 = 0.0228) of 998.84 ± 0.13 kg/m3. For the same compound, the mass density (m1 = 0.027) was 999.17 ± 0.13 kg/m3, the mass density (m1 = 0.036) was 999.87 ± 0.13 kg/m3 and the mass density (m1 = 0.045) was 1000.57 ± 0.13 kg/m3. It also gave a mass density (m1 = 0.0519) of 1001.1 ± 0.13 kg/m3, a mass density (m1 = 0.063) of 1001.95 ± 0.13 kg/m3 and a mass density (m1 = 0.0706) of 1002.53 ± 0.13 kg/m3. The mass density (m1 = 0.0771) was 1003.03 ± 0.13 kg/m3.
O=S(=O)(O)CCCCN1CCOCC1 [4-morpholinebutanesulfonic acid] + O showed a mass density (m1 = 0.0134) of 997.89 ± 0.13 kg/m3, a mass density (m1 = 0.0201) of 998.3 ± 0.13 kg/m3 and a mass density (m1 = 0.0282) of 998.8 ± 0.13 kg/m3. It also gave a mass density (m1 = 0.0365) of 999.31 ± 0.13 kg/m3, a mass density (m1 = 0.0456) of 999.87 ± 0.13 kg/m3 and a mass density (m1 = 0.054) of 1000.38 ± 0.13 kg/m3. For the same compound, the mass density (m1 = 0.0636) was 1000.96 ± 0.13 kg/m3, the mass density (m1 = 0.0702) was 1001.35 ± 0.13 kg/m3 and the mass density (m1 = 0.0768) was 1001.74 ± 0.13 kg/m3. For the same compound, the mass density (m1 = 0.0827) was 1002.09 ± 0.13 kg/m3.
In the case of O=S(=O)(O)CCN1CCOCC1 [4-morpholineethanesulfonic acid] + O, the mass density (m1 = 0.0114) is reported as 997.79 ± 0.13 kg/m3, the mass density (m1 = 0.018) is reported as 998.22 ± 0.13 kg/m3 and the mass density (m1 = 0.0237) is reported as 998.59 ± 0.13 kg/m3. For the same compound, the mass density (m1 = 0.0301) was 999.01 ± 0.13 kg/m3, the mass density (m1 = 0.0403) was 999.67 ± 0.13 kg/m3 and the mass density (m1 = 0.0513) was 1000.38 ± 0.13 kg/m3. It also gave a mass density (m1 = 0.0614) of 1001.03 ± 0.13 kg/m3, a mass density (m1 = 0.0722) of 1001.72 ± 0.13 kg/m3 and a mass density (m1 = 0.0822) of 1002.35 ± 0.13 kg/m3. For the same compound, the mass density (m1 = 0.0947) was 1003.14 ± 0.13 kg/m3.
Compound O=S(=O)(O)CCCN1CCOCC1 [4-morpholinepropanesulfonic acid] + O has a mass density (m1 = 0.0077) of 997.53 ± 0.12 kg/m3, a mass density (m1 = 0.0172) of 998.13 ± 0.12 kg/m3 and a mass density (m1 = 0.0292) of 998.88 ± 0.12 kg/m3. It also gave a mass density (m1 = 0.0386) of 999.46 ± 0.12 kg/m3, a mass density (m1 = 0.0496) of 1000.14 ± 0.12 kg/m3 and a mass density (m1 = 0.0556) of 1000.5 ± 0.12 kg/m3. It also gave a mass density (m1 = 0.0611) of 1000.84 ± 0.12 kg/m3, a mass density (m1 = 0.0668) of 1001.19 ± 0.12 kg/m3 and a mass density (m1 = 0.0736) of 1001.59 ± 0.12 kg/m3. The mass density (m1 = 0.0812) was 1002.05 ± 0.12 kg/m3 and the mass density (m1 = 0.0869) was 1002.39 ± 0.12 kg/m3.
[Br-].[K+] [potassium bromide] + O gave a mass density (m1 = 0.05) of 1001.25 ± 0.13 kg/m3, a mass density (m1 = 0.16) of 1010.47 ± 0.13 kg/m3 and a mass density (m1 = 0.25) of 1017.89 ± 0.14 kg/m3.
In the case of [Cl-].[K+] [potassium chloride] + O, the mass density (m1 = 0.05) is reported as 999.45 ± 0.12 kg/m3, the mass density (m1 = 0.16) is reported as 1004.53 ± 0.12 kg/m3 and the mass density (m1 = 0.25) is reported as 1008.66 ± 0.12 kg/m3.
CC(=O)[O-].[K+] [potassium ethanoate] + O gave a mass density (m1 = 0.05) of 999.46 ± 0.12 kg/m3, a mass density (m1 = 0.16) of 1004.6 ± 0.1 kg/m3 and a mass density (m1 = 0.25) of 1008.74 ± 0.12 kg/m3.
[Cl-].[Na+] [sodium chloride] + O gave a mass density (m1 = 0.05) of 999.12 ± 0.13 kg/m3, a mass density (m1 = 0.16) of 1003.6 ± 0.1 kg/m3 and a mass density (m1 = 0.25) of 1007.22 ± 0.13 kg/m3.
